Measured values published in paper PMC3914206.

Experiments:
panel of 442 kinases [1] = molecular target: T1, panel of 442 kinases (Homo sapiens, UniProt O14976); assay type: binding; conditions: Compound Concentration 10 µM
T1 construct: purchased KINOMEscan
T1 sequence (O14976 1-1311): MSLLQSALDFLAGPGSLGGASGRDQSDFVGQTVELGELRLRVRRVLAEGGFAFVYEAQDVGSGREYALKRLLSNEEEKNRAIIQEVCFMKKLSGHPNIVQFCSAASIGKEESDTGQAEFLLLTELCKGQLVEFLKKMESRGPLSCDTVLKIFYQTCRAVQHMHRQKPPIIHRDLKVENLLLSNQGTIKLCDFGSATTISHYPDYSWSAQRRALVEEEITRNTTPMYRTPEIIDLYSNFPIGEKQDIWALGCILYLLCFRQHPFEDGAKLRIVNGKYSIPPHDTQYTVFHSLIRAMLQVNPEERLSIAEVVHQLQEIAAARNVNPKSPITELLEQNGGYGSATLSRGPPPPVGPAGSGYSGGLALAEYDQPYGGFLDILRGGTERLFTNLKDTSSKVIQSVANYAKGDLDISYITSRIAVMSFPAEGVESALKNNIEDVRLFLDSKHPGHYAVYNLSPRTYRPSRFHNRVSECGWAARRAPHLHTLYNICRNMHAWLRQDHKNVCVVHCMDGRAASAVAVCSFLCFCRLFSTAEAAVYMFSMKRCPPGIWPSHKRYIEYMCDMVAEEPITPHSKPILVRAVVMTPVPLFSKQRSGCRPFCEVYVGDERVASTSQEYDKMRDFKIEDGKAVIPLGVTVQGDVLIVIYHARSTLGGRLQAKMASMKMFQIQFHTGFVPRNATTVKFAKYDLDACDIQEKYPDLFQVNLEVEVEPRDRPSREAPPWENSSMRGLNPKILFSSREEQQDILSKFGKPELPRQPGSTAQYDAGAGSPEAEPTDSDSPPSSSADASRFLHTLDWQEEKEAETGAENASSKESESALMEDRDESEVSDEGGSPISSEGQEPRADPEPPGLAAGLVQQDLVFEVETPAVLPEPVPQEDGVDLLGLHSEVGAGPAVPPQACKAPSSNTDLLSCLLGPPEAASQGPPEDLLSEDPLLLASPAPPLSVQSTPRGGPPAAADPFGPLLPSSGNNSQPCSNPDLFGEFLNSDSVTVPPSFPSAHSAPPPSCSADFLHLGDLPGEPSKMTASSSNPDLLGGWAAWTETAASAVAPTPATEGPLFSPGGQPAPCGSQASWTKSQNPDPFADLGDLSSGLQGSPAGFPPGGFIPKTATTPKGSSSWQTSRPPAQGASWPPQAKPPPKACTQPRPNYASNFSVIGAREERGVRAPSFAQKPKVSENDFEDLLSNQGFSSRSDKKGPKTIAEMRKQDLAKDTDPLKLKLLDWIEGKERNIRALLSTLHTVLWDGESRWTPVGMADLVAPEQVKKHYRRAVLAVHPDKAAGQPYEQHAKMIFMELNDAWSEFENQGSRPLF
From the text: (§1) We assessed the selectivity of members of this scaffold using the KINOMEscan methodology across a near comprehensive panel of 442 kinases [[18,27]].

panel of 442 kinases [2] = molecular target: T2, panel of 442 kinases (Homo sapiens, UniProt O15075); assay type: binding; conditions: Compound Concentration 10 µM
T2 construct: purchased KINOMEscan
From the text: as §1

T2 sequence (O15075 whole entry): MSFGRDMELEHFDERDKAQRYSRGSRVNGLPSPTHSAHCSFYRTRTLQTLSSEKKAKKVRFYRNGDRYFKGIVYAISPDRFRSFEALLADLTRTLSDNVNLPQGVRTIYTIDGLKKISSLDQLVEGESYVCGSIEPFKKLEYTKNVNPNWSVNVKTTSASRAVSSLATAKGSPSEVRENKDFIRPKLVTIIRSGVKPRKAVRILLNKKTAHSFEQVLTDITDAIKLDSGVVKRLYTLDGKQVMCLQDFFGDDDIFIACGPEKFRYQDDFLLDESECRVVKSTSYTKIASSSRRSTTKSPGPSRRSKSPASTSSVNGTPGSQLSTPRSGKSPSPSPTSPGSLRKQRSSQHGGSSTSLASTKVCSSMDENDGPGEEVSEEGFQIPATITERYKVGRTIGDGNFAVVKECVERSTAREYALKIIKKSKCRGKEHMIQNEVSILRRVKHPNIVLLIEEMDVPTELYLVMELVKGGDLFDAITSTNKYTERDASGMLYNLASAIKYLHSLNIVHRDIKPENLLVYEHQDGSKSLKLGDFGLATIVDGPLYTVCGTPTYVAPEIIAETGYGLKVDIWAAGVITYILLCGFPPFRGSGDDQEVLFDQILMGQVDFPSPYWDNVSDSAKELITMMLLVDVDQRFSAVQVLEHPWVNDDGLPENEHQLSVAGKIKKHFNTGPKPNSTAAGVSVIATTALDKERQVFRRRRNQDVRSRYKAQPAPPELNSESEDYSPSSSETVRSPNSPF

SMILES | KINOMEscan: GAK (panel of 442 kinases [1]) | KINOMEscan: DCAMKL1 (panel of 442 kinases [2])
COc1cc(C(=O)N2CCC(N3CCN(C)CC3)CC2)ccc1Nc1ncc2c(n1)N1CCc3cccc(c31)C(=O)N2C [Compound 24] | 19 | 6.4
CCOc1cc(C(=O)N2CCC(N3CCN(C)CC3)CC2)ccc1Nc1ncc2c(n1)N(C1CCCC1)c1ccccc1C(=O)N2C [Compound 26] | 100 | –
COc1cc(C(=O)N2CCC(N3CCN(C)CC3)CC2)ccc1Nc1ncc2c(n1)N(C1CCCC1)c1ccccc1C(=O)N2C [Compound 25, 11-cyclopentyl-2-((2-methoxy-4-(4-(4-methylpiperazin-1-yl)piperidine-1-carbonyl)phenyl)amino)-5-methyl-5H-benzo[e]pyrimido[5,4-b][1,4]diazepin-6(11H)-one] | 82 | 8.4
COc1cc(C(=O)N2CCC(N3CCN(C)CC3)CC2)ccc1Nc1ncc2c(n1)N(C)c1ccccc1C(=O)N2C [15 (LRRK2-IN-1)] | 16 | 4.2
